Test results reported in ChEMBL document CHEMBL1125905, “Synthesis, conformational properties, and antibody recognition of peptides containing beta-turn mimetics based on alpha-alkylproline derivatives” (J Med Chem, 1991).

Tests used:
[1] = Dissociation constant (Kd) for the equilibrium binding to the monoclonal antibodies DB19/1 which were raised in mice was determined; design: species or system Mus musculus
[2] = Dissociation constant (Kd) for the equilibrium binding to the monoclonal antibodies DB19/25 which were raised in mice was determined; design: species or system Mus musculus

Kd [1] [nM] | Kd [2] [nM] | Compound
3.6 | 5.7 | CC(=O)N[C@@H](Cc1ccc(O)cc1)C(=O)N1CCC[C@@]1(C)C(=O)N[C@@H](Cc1ccc(O)cc1)C(=O)N[C@@H](CC(=O)O)C(=O)N[C@@H](C(=O)N1CCC[C@@H]1C(=O)N[C@H](CC(=O)O)C(=O)N[C@H](Cc1ccc(O)cc1)C(=O)N[C@H](C)C(=O)O)C(C)C
88 | 38 | CC(=O)N[C@@H](Cc1ccc(O)cc1)C(=O)N1CCC[C@H]1C(=O)N[C@@H](Cc1ccc(O)cc1)C(=O)N[C@@H](CC(=O)O)C(=O)N[C@@H](C(=O)N(C)[C@@H](C)C(=O)N[C@H](CC(=O)O)C(=O)N[C@H](Cc1ccc(O)cc1)C(=O)N[C@H](C)C(=O)O)C(C)C
4200 | 600 | CC(=O)N[C@@H](Cc1ccc(O)cc1)C(=O)N(C)[C@@H](C)C(=O)N[C@@H](Cc1ccc(O)cc1)C(=O)N[C@@H](CC(=O)O)C(=O)N[C@@H](C(=O)N1CCC[C@@H]1C(=O)N[C@H](CC(=O)O)C(=O)N[C@H](Cc1ccc(O)cc1)C(=O)N[C@H](C)C(=O)O)C(C)C
180 | 18 | CC(=O)N[C@@H](Cc1ccc(O)cc1)C(=O)N1CCC[C@H]1C(=O)N[C@@H](Cc1ccc(O)cc1)C(=O)N[C@@H](CC(=O)O)C(=O)N[C@@H](C(=O)N1CCC[C@@H]1C(=O)N[C@H](CC(=O)O)C(=O)N[C@H](Cc1ccc(O)cc1)C(=O)N[C@H](C)C(=O)O)C(C)C
